Measurements: patent US20060020021A1, “Use of compounds derived from 2,3-dehydronaringenin for the treatment of inflammatory processes and pharmaceutical composition containing said derivatives” (FURFURAL ESPANOL, S.A., priority 2004, published 2006)

Columns and labels:
[1] = tested on: paw edema in mice induced by carragenin; experiment: Test of paw edema in mice induced by carragenin (paw volume); format: in vivo, male Swiss albino mice; details: 70 mg/kg intraperitoneally 1 h before intradermal carragenin; significant at 1 h (p<0.025), 5 h (p<0.005), 24 h (p<0.0005)
Experimental: The anti-inflammatory capacity of the product of Formula (I), wherein R is a potassium cation, was tested: [drawing 3] in male Swiss albino mice of 8 to 10 weeks of age (38-44 g), from the Servicio de Animales de Laboratorio (Laboratory Animals Department) of the University of Murcia. The animals were maintained under standard conditions (temperature of 22±2° C., humidity 60±4% and light/dark cycle of 12 hours) with food and drink ad libitum. The animals were anesthetized with ether in the moment of inducing inflammation and during the measurements of the volume of the paw. Test of Paw Edema in Mice Induced by Carragenin
The inflammation was caused by intradermal injection of 0.05 ml of 1% Lambda Carrageenan (Sigma-Aldrich, Madrid, Spain) in saline solution in the plantar pad of the right hind paw. The measurement of the edema was carried out with a digital calibrator (Proinsa, Vitoria, Spain), measuring the 3 largest diameters of the paw for the volume calculation. The measurements were carried out in triplicate. The volume of the paw was measured immediately before (0 hours) and at 1, 5 and 24 hours after causing inflammation. The compound of Formula (I) was dissolved in sterile saline solution and intraperitoneally administered (70 mg/kg) 1 h before causing inflammation. […] Groups of 10 animals were used. […]

[2] = tested on: paw edema in mice induced by carragenin; experiment: Microscopic study and assessment of the injected plantar pad (edema, inflammatory infiltrate, degree 0-3); format: in vivo, male Swiss albino mice; details: treated group, 24 hours post-inoculation, 70 mg/kg i.p.
Experimental: The plantar pad area injected was extirpated at 24 hours post-inoculation; fixed in 10% buffered neutral formaldehyde, included in paraffin by the standard method, sectioned at 3 μm and stained with hematoxilin-eosin for its optical study which was carried out by two observers. The presence of edema and polynuclear neutrophils and monocytes was measured, being assessed as 0 (absence), 1 (slight), 2 (moderate) and 3 (intense) (FIGS. 3 to 6b).

`O=c1cc(-c2ccc(O)cc2)oc2cc(O)cc(O)c12` [2,3-DHNA, 2,3-dehydronaringenin] was tested, and the “Increases in the volume of inoculated paw, treated group vs control group” value [1] was “lower in the treated group than in the control group”, the “samples with moderate inflammation (degree 2)” value [2] was 13.3% and the “samples with neither edema nor inflammatory infiltrate (degree 0)” value [2] was 60%. For the same compound, the “samples with slight inflammation (degree 1)” value [2] was 26.65%.
